According to patent US20230257376A1, “ROCK INHIBITOR, AND PREPARATION METHOD THEREFOR AND USE THEREOF” (WUHAN LL SCIENCE AND TECHNOLOGY DEVELOPMENT CO., LTD., priority 2020, published 2023):

Key:
[1] = biological target: T1, ROCK2 kinase (Homo sapiens, UniProt O75116); assay: In vitro evaluation of ROCK2 kinase activity (HTRF KinEASE-STK time-resolved fluorometric assay); type: biochemical; conditions: ROCK2 kinase 0.4 ng/μL, ATP 6.739 μM
T1 construct: purchased Invitrogen PV3759
Experimental: ROCK2 activity screening. ROCK2 activity was detected using a 96-well (Cisbio) time-resolved fluorometric assay. The assay for ROCK2 was performed in the following assay buffer: 5 mM MgCl2 (Sigma), 1 mM DTT (Sigma) and 1× kinase buffer. The kinase buffer was used for dilution. 7.5 μL of ROCK2 kinase (Invitrogen, PV3759) was added to a 96-well microplate to reach a final concentration of 0.4 ng/μL, and then 0.25 μL of test compound (DMSO content: 1% (volume fraction)) was added. The mixture was incubated at room temperature for 0.5 h. To start the reaction, the kinase buffer was used to mix ATP (Aladdin) and the substrate STK-substrate 2-biotin. 7.5 μL of the mixed solution was added to the microplate to reach final concentrations of 6.739 μM and 1 μM. The resulting mixture was incubated at room temperature for 2 h. 5 mL of detection buffer was mixed with STK antibody-Cryptate, and then an appropriate volume of the mixture was mixed with an equal volume of streptavidin-XL665. 10 μL of the resulting mixture was added to the microplate to stop the reaction. After further incubation for about 1 h, the microplate was read on a Molecular Devices SpectraMax i3x multifunctional microplate reader. The kinase buffer, the STK-substrate 2-biotin, the detection buffer, the STK antibody-Cryptate, and the streptavidin-XL665 were all from HTRF KinEASE-STK kit (Cisbio, 1000 tests, 61GSTXLA).

[2] = biological target: T2, ROCK1 kinase (Homo sapiens, UniProt Q13464); assay: In vitro evaluation of ROCK1 kinase selectivity (HTRF KinEASE-STK time-resolved fluorometric assay); type: biochemical; conditions: ROCK1 kinase 0.4 ng/μL, ATP 3.53 μM
T2 construct: purchased Invitrogen
Experimental: ROCK1 activity was detected using a 96-well (Cisbio) time-resolved fluorometric assay. The assay for ROCK1 was performed in the following assay buffer: 5 mM MgCl2 (Sigma), 1 mM DTT (Sigma) and 1× kinase buffer. The kinase buffer was used for dilution. 7.5 μL of ROCK1 kinase (Invitrogen) was added to a 96-well microplate to reach a final concentration of 0.4 ng/μL, and then 0.25 μL of test compound (DMSO content: 1%) was added. The mixture was incubated at room temperature for 0.5 h. To start the reaction, the kinase buffer was also used to mix ATP (Aladdin) and the substrate STK-substrate 2-biotin. 7.5 μL of the mixed solution was added to the microplate to reach final concentrations of 3.53 μM and 1 μM. The resulting mixture was incubated at room temperature for 2 h. 5 mL of detection buffer was mixed with STK antibody-Cryptate, and then an appropriate volume of the mixture was mixed with an equal volume of streptavidin-XL665. 10 μL of the resulting mixture was added to stop the reaction. After further incubation for about 1 h, the microplate was read on a Molecular Devices SpectraMax i3x multifunctional microplate reader. The kinase buffer, the STK-substrate 2-biotin, the detection buffer, the STK antibody-Cryptate, and the streptavidin-XL665 were all from HTRF KinEASE-STK kit (Cisbio, 1000 tests, 61GSTXLA).

T2 sequence (Q13464 whole entry): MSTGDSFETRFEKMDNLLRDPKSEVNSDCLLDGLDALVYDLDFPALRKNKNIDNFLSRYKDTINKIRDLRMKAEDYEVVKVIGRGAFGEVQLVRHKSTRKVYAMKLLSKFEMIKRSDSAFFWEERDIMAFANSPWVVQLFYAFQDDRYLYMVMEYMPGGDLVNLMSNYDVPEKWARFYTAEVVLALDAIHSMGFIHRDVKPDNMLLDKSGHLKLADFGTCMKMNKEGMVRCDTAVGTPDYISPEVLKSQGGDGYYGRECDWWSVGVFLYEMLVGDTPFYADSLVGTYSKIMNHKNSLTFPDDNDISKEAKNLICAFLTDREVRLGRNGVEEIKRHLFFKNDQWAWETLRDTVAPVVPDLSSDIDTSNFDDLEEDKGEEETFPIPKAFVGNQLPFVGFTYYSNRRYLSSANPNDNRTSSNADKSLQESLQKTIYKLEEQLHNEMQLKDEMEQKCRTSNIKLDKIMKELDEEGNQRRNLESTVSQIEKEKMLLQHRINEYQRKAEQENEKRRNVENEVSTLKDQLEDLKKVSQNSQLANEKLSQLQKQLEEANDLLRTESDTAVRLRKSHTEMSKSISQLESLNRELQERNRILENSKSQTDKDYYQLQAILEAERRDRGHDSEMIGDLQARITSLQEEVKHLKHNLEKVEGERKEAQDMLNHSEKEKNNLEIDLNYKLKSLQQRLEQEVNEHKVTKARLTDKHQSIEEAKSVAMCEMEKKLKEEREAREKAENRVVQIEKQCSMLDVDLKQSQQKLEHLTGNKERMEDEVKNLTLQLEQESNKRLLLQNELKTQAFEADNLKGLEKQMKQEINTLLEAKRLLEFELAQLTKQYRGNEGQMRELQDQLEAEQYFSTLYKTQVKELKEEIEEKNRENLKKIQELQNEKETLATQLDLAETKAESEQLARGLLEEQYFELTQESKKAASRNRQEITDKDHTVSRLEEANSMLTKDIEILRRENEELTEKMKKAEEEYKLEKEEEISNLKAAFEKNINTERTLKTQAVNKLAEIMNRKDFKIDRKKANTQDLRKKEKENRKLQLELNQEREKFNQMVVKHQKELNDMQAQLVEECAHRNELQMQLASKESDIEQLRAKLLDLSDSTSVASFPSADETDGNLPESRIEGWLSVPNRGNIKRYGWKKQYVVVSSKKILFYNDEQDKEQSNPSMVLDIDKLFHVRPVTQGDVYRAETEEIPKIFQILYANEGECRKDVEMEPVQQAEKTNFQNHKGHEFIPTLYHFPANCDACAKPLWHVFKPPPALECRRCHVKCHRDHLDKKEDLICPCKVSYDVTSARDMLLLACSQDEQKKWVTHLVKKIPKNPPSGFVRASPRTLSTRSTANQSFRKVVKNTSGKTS
T1 sequence (O75116 whole entry): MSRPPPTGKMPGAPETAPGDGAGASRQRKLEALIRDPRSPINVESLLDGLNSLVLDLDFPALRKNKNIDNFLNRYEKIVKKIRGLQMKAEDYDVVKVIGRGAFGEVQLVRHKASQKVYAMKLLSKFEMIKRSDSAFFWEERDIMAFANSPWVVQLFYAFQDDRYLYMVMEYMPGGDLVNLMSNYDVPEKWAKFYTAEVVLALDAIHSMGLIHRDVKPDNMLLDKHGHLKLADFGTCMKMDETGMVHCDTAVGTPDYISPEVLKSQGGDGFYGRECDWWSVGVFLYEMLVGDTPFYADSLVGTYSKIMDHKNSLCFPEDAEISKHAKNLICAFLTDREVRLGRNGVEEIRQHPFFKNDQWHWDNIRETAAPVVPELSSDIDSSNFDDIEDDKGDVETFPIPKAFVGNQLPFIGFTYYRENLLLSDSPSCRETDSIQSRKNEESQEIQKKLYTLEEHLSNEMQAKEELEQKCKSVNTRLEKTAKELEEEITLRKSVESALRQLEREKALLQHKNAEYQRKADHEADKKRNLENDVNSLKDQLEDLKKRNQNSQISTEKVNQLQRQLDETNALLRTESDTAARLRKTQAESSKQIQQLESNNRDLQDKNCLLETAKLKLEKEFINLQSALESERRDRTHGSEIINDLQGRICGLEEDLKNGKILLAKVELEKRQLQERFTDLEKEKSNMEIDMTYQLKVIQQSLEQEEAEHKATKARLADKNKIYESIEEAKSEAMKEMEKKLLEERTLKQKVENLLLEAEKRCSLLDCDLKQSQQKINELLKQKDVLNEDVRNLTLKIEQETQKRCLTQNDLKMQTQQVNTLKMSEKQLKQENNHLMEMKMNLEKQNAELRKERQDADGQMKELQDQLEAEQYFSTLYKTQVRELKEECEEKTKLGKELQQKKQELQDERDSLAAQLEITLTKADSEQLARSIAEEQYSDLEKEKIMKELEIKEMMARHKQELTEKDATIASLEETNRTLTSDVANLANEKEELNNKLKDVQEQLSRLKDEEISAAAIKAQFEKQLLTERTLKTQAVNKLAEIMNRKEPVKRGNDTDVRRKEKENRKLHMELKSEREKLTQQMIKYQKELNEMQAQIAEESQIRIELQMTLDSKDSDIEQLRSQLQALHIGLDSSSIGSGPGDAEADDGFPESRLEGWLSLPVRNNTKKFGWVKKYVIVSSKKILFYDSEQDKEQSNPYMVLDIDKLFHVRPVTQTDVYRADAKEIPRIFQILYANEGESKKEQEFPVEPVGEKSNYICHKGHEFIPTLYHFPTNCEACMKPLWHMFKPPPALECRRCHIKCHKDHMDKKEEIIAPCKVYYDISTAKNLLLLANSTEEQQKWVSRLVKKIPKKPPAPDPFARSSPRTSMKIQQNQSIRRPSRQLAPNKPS

| Compound | IC50 [1] | IC50 [2] |
| --- | --- | --- |
| Cn1c(C(=O)N2CC(C#N)C2)cc2c1CN(c1nccc(Nc3ccc(-c4cn[nH]c4)cc3)n1)CC2 [Compound L010, 1-(6-(4-((4-(1H-pyrazol-4-yl)phenyl)amino)pyrimidin-2-yl)-1-methyl-4,5,6,7-tetrahydro-1H-pyrrolo[2,3-c]pyridin-2-carbonyl)azetidine-3-carbonitrile] | ≤ 50 nM | > 4500 nM |
| CN(C(=O)c1cn2c(n1)CN(c1nccc(Nc3ccc(-c4cn[nH]c4)cc3)n1)CC2)C1CC(F)(F)C1 [Compound L022] | 500 to 4500 nM |  |
| O=C(O)c1cc2n(c1)CCN(c1nccc(Nc3ccc(-c4cn[nH]c4)cc3)n1)C2 [Compound L013, 2-(4-((4-(1H-pyrazol-4-yl)phenyl)amino)pyrimidin-2-yl)-1,2,3,4-tetrahydropyrrolo[1,2-a]pyrazine-7-carboxylic Acid] | > 4500 nM |  |
| Cn1c(C(=O)N2CC(F)(F)C2)cc2c1CN(c1ncc(C#N)c(Nc3ccc(-c4cn[nH]c4)cc3)n1)CC2 [Compound L034, 4-((4-(1H-pyrazol-4-yl)phenyl)amino)-2-(2-(3,3-difluoroazetidin-1-carbonyl)-1-methyl-4,5-dihydro-1H-pyrrolo[2,3-c]pyridin-6(7H)-yl)pyrimidine-5-carbonitrile] | ≤ 50 nM | > 4500 nM |
| CC(C)NC(=O)c1cc2c(n1C)CN(c1nccc(Nc3ccc(-c4cn[nH]c4)cc3)n1)CC2 [Compound L009, 6-(4-((4-(1H-pyrazol-4-yl)phenyl)amino)pyrimidin-2-yl)-N-isopropyl-1-methyl-4,5,6,7-tetrahydro-1H-pyrrolo[2,3-c]pyridine-2-carboxamide] | 500 to 4500 nM |  |
| O=C(c1cn2c(n1)CN(c1nccc(Nc3ccc(-c4cn[nH]c4)cc3)n1)CC2)N1CC(F)(F)C1 [Compound L015] | 50 to 500 nM | > 4500 nM |
| Cn1c(C(=O)N2CC(F)(F)C2)cc2c1CN(c1nc(Nc3ccc(-c4cn[nH]c4)cc3)nc(C3COC3)n1)CC2 [Compound L052, (6-(4-((4-(1H-pyrazol-4-yl)phenyl)amino)-6-(oxetan-3-yl)-1,3,5-triazin-2-yl)-1-methyl-4,5,6,7-tetrahydro-1H-pyrrolo[2,3-c]pyridin-2-yl)(3,3-difluoroazetidin-1-yl)methanone] | 50 to 500 nM | > 4500 nM |
| Cn1c(C(=O)NC2CCN(c3ccncc3Cl)CC2)cc2c1CN(c1nccc(Nc3ccc(-c4cn[nH]c4)cc3)n1)CC2 [Compound L021] | 50 to 500 nM | > 4500 nM |
| O=C(c1cc2n(c1)CCN(c1nccc(Nc3ccc(-c4cn[nH]c4)cc3)n1)C2)N1CC(F)(F)C1 [Compound L025, (2-(4-((4-(1H-pyrazol-4-yl)phenyl)amino)pyrimidin-2-yl)-1,2,3,4-tetrahydropyrrolo[1,2-a]pyrazin-7-yl)(3,3-difluoroazetidin-1-yl)methanone] | > 4500 nM |  |
| O=C(NC1CC(F)(F)C1)c1cn2c(n1)CN(c1nccc(Nc3ccc(-c4cn[nH]c4)cc3)n1)CC2 [Compound L008, 7-(4-((4-(1H-pyrazol-4-yl)phenyl)amino)pyrimidin-2-yl)-N-(3,3-difluorocyclobutyl)-5,6,7,8-tetrahydroimidazo[1,2-a]pyrazine-2-carboxamide] | ≤ 50 nM | > 4500 nM |
| Cn1c(C(=O)NC2CC(F)(F)C2)cc2c1CN(c1nccc(Nc3ccc(-c4cn[nH]c4)cc3)n1)CC2 [Compound L004, 6-(4-((4-(1H-pyrazol-4-yl)phenyl)amino)pyrimidin-2-yl)-N-(3,3-difluorocyclobutyl)-1-methyl-4,5,6,7-tetrahydro-1H-pyrrolo[2,3-c]pyridine-2-carboxamide] | 50 to 500 nM | 500 to 4500 nM |
| CC(C)c1nc(Nc2ccc(-c3cn[nH]c3)cc2)nc(N2CCc3cc(C(=O)N4CC(F)(F)C4)n(C)c3C2)n1 [Compound L049] | 50 to 500 nM | > 4500 nM |
| Cn1c(C(=O)N2CC(F)(F)C2)cc2c1CN(c1nnc(Nc3ccc(-c4cn[nH]c4)cc3)o1)CC2 [Compound L046, (6-(5-((4-(1H-pyrazol-4-yl)phenyl)amino)-1,3,4-oxadiazol-2-yl)-1-methyl-4,5,6,7-tetrahydro-1H-pyrrolo[2,3-c]pyridin-2-yl)(3,3-difluoroazetidin-1-yl)methanone] | > 4500 nM | > 4500 nM |
| CN(C(=O)c1cc2c(n1C)CN(c1nccc(Nc3ccc(-c4cn[nH]c4)cc3)n1)CC2)C1CC(F)(F)C1 [Compound L014, 6-(4-((4-(1H-pyrazol-4-yl)phenyl)amino)pyrimidin-2-yl)-N-(3,3-difluorocyclobutyl)-N,1-dimethyl-4,5,6,7-tetrahydro-1H-pyrrolo[2,3-c]pyridine-2-carboxamide] | > 4500 nM |  |
| O=C(c1cc2n(n1)CCN(c1nccc(Nc3ccc(-c4cn[nH]c4)cc3)n1)C2)N1CC(F)(F)C1 [Compound L003, (5-(4-((4-(1H-pyrazol-4-yl)phenyl)amino)pyrimidin-2-yl)-4,5,6,7-tetrahydropyrazolo[1,5-a]pyrazin-2-yl)(3,3-difluoroazetidin-1-yl)methanone] | > 4500 nM |  |
| Cn1c(C(=O)N2CC(F)(F)C2)cc2c1CN(c1nc3c(c(Nc4ccc(-c5cn[nH]c5)cc4)n1)CCC3)CC2 [Compound L053, (6-(4-((4-(1H-pyrazol-4-yl)phenyl)amino)-6,7-dihydro-5H-cyclopenta[d]pyrimidin-2-yl)-1-methyl-4,5,6,7-tetrahydro-1H-pyrrolo[2,3-c]pyridin-2-yl)(3,3-difluoroazetidin-1-yl)methanone] | 50 to 500 nM | > 4500 nM |
| Cn1c(C(=O)Nc2ccnnc2)cc2c1CN(c1nccc(Nc3ccc(-c4cn[nH]c4)cc3)n1)CC2 [Compound L012, 6-(4-((4-(1H-pyrazol-4-yl)phenyl)amino)pyrimidin-2-yl)-1-methyl-N-(pyridazin-4-yl)-4,5,6,7-tetrahydro-1H-pyrrolo[2,3-c]pyridine-2-carboxamide] | 50 to 500 nM | 50 to 500 nM |
| O=C(c1ccc2c(c1)CN(c1nccc(Nc3ccc(-c4cn[nH]c4)cc3)n1)CC2)N1CC(F)(F)C1 [Compound L028, (2-(4-((4-(1H-pyrazol-4-yl)phenyl)amino)pyrimidin-2-yl)-1,2,3,4-tetrahydroisoquinolin-7-yl)(3,3-difluoroazetidin-1-yl)methanone] | 500 to 4500 nM | > 4500 nM |
| Cn1c(C(=O)N2CC(F)(F)C2)cc2c1CN(c1ncc(C(F)(F)F)c(Nc3ccc(-c4cn[nH]c4)cc3)n1)CC2 [Compound L035, (6-(4-((4-(1H-pyrazol-4-yl)phenyl)amino)-5-(trifluoromethyl)pyrimidin-2-yl)-1-methyl-4,5,6,7-tetrahydro-1H-pyrrolo[2,3-c]pyridin-2-yl)(3,3-difluoroazetidin-1-yl)methanone] | 50 to 500 nM | > 4500 nM |
| O=C(O)c1cn2c(n1)CN(c1nccc(Nc3ccc(-c4cn[nH]c4)cc3)n1)CC2 [Compound L002, 7-(4-((4-(1H-pyrazol-4-yl)phenyl)amino)pyrimidin-2-yl)-5,6,7,8-tetrahydroimidazo[1,2-a]pyrazine-2-carboxylic Acid] | > 4500 nM |  |
| O=C(c1ccc2nn(-c3nccc(Nc4ccc(-c5cn[nH]c5)cc4)n3)cc2c1)N1CC(F)(F)C1 [Compound L011, (2-(4-((4-(1H-pyrazol-4-yl)phenyl)amino)pyrimidin-2-yl)-2H-indazol-5-yl)(3,3-difluoroazetidin-1-yl)methanone] | 500 to 4500 nM |  |
| Cn1c(C(=O)O)cc2c1CN(c1nccc(Nc3ccc(-c4cn[nH]c4)cc3)n1)CC2 [Compound L001, 6-(4-((4-(1H-pyrazol-4-yl)phenyl)amino)pyrimidin-2-yl)-1-methyl-4,5,6,7-tetrahydro-1H-pyrrolo[2,3-c]pyridine-2-carboxylic Acid] | > 4500 nM |  |
| Cn1c(C(=O)N2CC(F)(F)C2)cc2c1CN(c1nccc(Nc3ccc(Oc4ncccc4C(N)=O)c(F)c3)n1)CC2 [Compound L007, 2-(4-((2-(2-(3,3-difluoroazetidin-1-carbonyl)-1-methyl-1,4,5,7-tetrahydro-6H-pyrrolo[2,3-c]pyridin-6-yl)pyrimidin-4-yl)amino)-2-fluorophenoxy)nicotinamide] | 500 to 4500 nM |  |
